{"source": "patent US20160367623A1", "about": "“AGONISTS OF GUANYLATE CYCLASE USEFUL FOR THE TREATMENT OF GASTROINTESTINAL DISORDERS, INFLAMMATION, CANCER AND OTHER DISORDERS” (priority 2015, published 2016)", "tested_on": "patients with chronic idiopathic constipation (CIC)", "assay": "Second phase 3 CIC trial: change from baseline in CSBMs/week", "format": "in vivo, human", "key": {"[1]": {"details": "Post-Treatment Week 13, 3 mg, ITT Population, MRA"}, "[2]": {"details": "Post-Treatment Week 13, 3 mg, ITT Population-Excluding Duplicate Patients, MRA"}, "[3]": {"details": "Post-Treatment Week 13, 6 mg, ITT Population, MRA"}, "[4]": {"details": "Post-Treatment Week 13, 6 mg, ITT Population-Excluding Duplicate Patients, MRA"}, "[5]": {"details": "Post-Treatment Week 14, 3 mg, ITT Population, MRA"}, "[6]": {"details": "Post-Treatment Week 14, 3 mg, ITT Population-Excluding Duplicate Patients, MRA"}, "[7]": {"details": "Post-Treatment Week 14, 6 mg, ITT Population, MRA"}, "[8]": {"details": "Post-Treatment Week 14, 6 mg, ITT Population-Excluding Duplicate Patients, MRA"}, "[9]": {"details": "Week 1, 3 mg, ITT Population, MRA"}, "[10]": {"details": "Week 1, 3 mg, ITT Population-Excluding Duplicate Patients, MRA"}, "[11]": {"details": "Week 1, 6 mg, ITT Population, MRA"}, "[12]": {"details": "Week 1, 6 mg, ITT Population-Excluding Duplicate Patients, MRA"}, "[13]": {"details": "Week 2, 3 mg, ITT Population, MRA"}, "[14]": {"details": "Week 2, 3 mg, ITT Population-Excluding Duplicate Patients, MRA"}, "[15]": {"details": "Week 2, 6 mg, ITT Population, MRA"}, "[16]": {"details": "Week 2, 6 mg, ITT Population-Excluding Duplicate Patients, MRA"}, "[17]": {"details": "Week 3, 3 mg, ITT Population, MRA"}, "[18]": {"details": "Week 3, 3 mg, ITT Population-Excluding Duplicate Patients, MRA"}, "[19]": {"details": "Week 3, 6 mg, ITT Population, MRA"}}, "note": "Bridge positions count the residues as written; N and C are the ends. Ends that are not written are not given here.", "data": [{"substance": "Asn^1-Asp^2-Glu^3-Cys^4-Glu^5-Leu^6-Cys^7-Val^8-Asn^9-Val^10-Ala^11-Cys^12-Thr^13-Gly^14-Cys^15-Leu^16 (NDECELCVNVACTGCL; disulfide 4-12, 7-15) [Plecanatide, uroguanylin analogue, guanylate cyclase-C agonist; (C4:C12, C7:C15) bicycle peptide]", "values": [{"measurement": "Change from Baseline in CSBMs, LS Mean (SE)", "setting": "6 mg, overall average estimate across the 12-week treatment period, All Randomized (includes Duplicate Patients)", "result": "2.14 (0.129) CSBMs/week"}, {"measurement": "Change from Baseline in CSBMs, Mean (SD)", "setting": "Active Combined, Post-Treatment Week 13, All Randomized (includes Duplicate Patients)", "result": "1.73 (2.552) CSBMs/week"}, {"measurement": "Change from Baseline in CSBMs, Mean (SD)", "setting": "Active Combined, Post-Treatment Week 14, All Randomized (includes Duplicate Patients)", "result": "1.69 (2.591) CSBMs/week"}, {"measurement": "Change from Baseline in CSBMs, Mean (SD)", "setting": "Active Combined, Week 1, All Randomized (includes Duplicate Patients)", "result": "1.73 (2.803) CSBMs/week"}, {"measurement": "Change from Baseline in CSBMs, Mean (SD)", "setting": "Active Combined, Week 2, All Randomized (includes Duplicate Patients)", "result": "1.83 (3.037) CSBMs/week"}, {"measurement": "Change from Baseline in CSBMs, Mean (SD)", "setting": "Active Combined, Week 3, All Randomized (includes Duplicate Patients)", "result": "1.89 (3.005) CSBMs/week"}, {"measurement": "Change from Baseline in CSBMs, Difference from Placebo", "setting": "[1]", "result": 0.43, "unit": "CSBMs/week"}, {"measurement": "Change from Baseline in CSBMs, LS Mean (SE)", "setting": "[1]", "result": "1.94 (0.134) CSBMs/week"}, {"measurement": "Change from Baseline in CSBMs, Mean (SD)", "setting": "[1]", "result": "1.88 (2.733) CSBMs/week"}, {"measurement": "Change from Baseline in CSBMs, Difference from Placebo", "setting": "[2]", "result": 0.46, "unit": "CSBMs/week"}, {"measurement": "Change from Baseline in CSBMs, LS Mean (SE)", "setting": "[2]", "result": "1.96 (0.135) CSBMs/week"}, {"measurement": "Change from Baseline in CSBMs, Mean (SD)", "setting": "[2]", "result": "1.90 (2.743) CSBMs/week"}, {"measurement": "Change from Baseline in CSBMs, Difference from Placebo", "setting": "[3]", "result": 0.20, "unit": "CSBMs/week"}, {"measurement": "Change from Baseline in CSBMs, LS Mean (SE)", "setting": "[3]", "result": "1.70 (0.134) CSBMs/week"}, {"measurement": "Change from Baseline in CSBMs, Mean (SD)", "setting": "[3]", "result": "1.64 (2.393) CSBMs/week"}, {"measurement": "Change from Baseline in CSBMs, Difference from Placebo", "setting": "[4]", "result": 0.18, "unit": "CSBMs/week"}, {"measurement": "Change from Baseline in CSBMs, LS Mean (SE)", "setting": "[4]", "result": "1.69 (0.133) CSBMs/week"}, {"measurement": "Change from Baseline in CSBMs, Mean (SD)", "setting": "[4]", "result": "1.62 (2.339) CSBMs/week"}, {"measurement": "Change from Baseline in CSBMs, Mean (SD)", "setting": "Post-Treatment Week 13, Active Combined, ITT Population-Excluding Duplicate Patients, MRA", "result": "1.76 (2.547) CSBMs/week"}, {"measurement": "Change from Baseline in CSBMs, Mean (SD)", "setting": "Post-Treatment Week 13, Active Combined, ITT Population, MRA", "result": "1.76 (2.567) CSBMs/week"}, {"measurement": "Change from Baseline in CSBMs, Difference from Placebo", "setting": "[5]", "result": 0.43, "unit": "CSBMs/week"}, {"measurement": "Change from Baseline in CSBMs, LS Mean (SE)", "setting": "[5]", "result": "1.82 (0.136) CSBMs/week"}, {"measurement": "Change from Baseline in CSBMs, Mean (SD)", "setting": "[5]", "result": "1.78 (2.620) CSBMs/week"}, {"measurement": "Change from Baseline in CSBMs, Difference from Placebo", "setting": "[6]", "result": 0.43, "unit": "CSBMs/week"}, {"measurement": "Change from Baseline in CSBMs, LS Mean (SE)", "setting": "[6]", "result": "1.83 (0.137) CSBMs/week"}, {"measurement": "Change from Baseline in CSBMs, Mean (SD)", "setting": "[6]", "result": "1.78 (2.628) CSBMs/week"}, {"measurement": "Change from Baseline in CSBMs, Difference from Placebo", "setting": "[7]", "result": 0.34, "unit": "CSBMs/week"}, {"measurement": "Change from Baseline in CSBMs, LS Mean (SE)", "setting": "[7]", "result": "1.73 (0.137) CSBMs/week"}, {"measurement": "Change from Baseline in CSBMs, Mean (SD)", "setting": "[7]", "result": "1.67 (2.616) CSBMs/week"}, {"measurement": "Change from Baseline in CSBMs, Difference from Placebo", "setting": "[8]", "result": 0.31, "unit": "CSBMs/week"}, {"measurement": "Change from Baseline in CSBMs, LS Mean (SE)", "setting": "[8]", "result": "1.71 (0.136) CSBMs/week"}, {"measurement": "Change from Baseline in CSBMs, Mean (SD)", "setting": "[8]", "result": "1.64 (2.536) CSBMs/week"}, {"measurement": "Change from Baseline in CSBMs, Mean (SD)", "setting": "Post-Treatment Week 14, Active Combined, ITT Population-Excluding Duplicate Patients, MRA", "result": "1.71 (2.582) CSBMs/week"}, {"measurement": "Change from Baseline in CSBMs, Mean (SD)", "setting": "Post-Treatment Week 14, Active Combined, ITT Population, MRA", "result": "1.72 (2.616) CSBMs/week"}, {"measurement": "Change from Baseline in CSBMs, Difference from Placebo", "setting": "[9]", "result": 0.88, "unit": "CSBMs/week"}, {"measurement": "Change from Baseline in CSBMs, LS Mean (SE)", "setting": "[9]", "result": "1.72 (0.153) CSBMs/week"}, {"measurement": "Change from Baseline in CSBMs, Mean (SD)", "setting": "[9]", "result": "1.75 (2.732) CSBMs/week"}, {"measurement": "Change from Baseline in CSBMs, Difference from Placebo", "setting": "[10]", "result": 0.88, "unit": "CSBMs/week"}, {"measurement": "Change from Baseline in CSBMs, LS Mean (SE)", "setting": "[10]", "result": "1.75 (0.155) CSBMs/week"}, {"measurement": "Change from Baseline in CSBMs, Mean (SD)", "setting": "[10]", "result": "1.78 (2.752) CSBMs/week"}, {"measurement": "Change from Baseline in CSBMs, Difference from Placebo", "setting": "[11]", "result": 0.88, "unit": "CSBMs/week"}, {"measurement": "Change from Baseline in CSBMs, LS Mean (SE)", "setting": "[11]", "result": "1.71 (0.151) CSBMs/week"}, {"measurement": "Change from Baseline in CSBMs, Mean (SD)", "setting": "[11]", "result": "1.72 (2.897) CSBMs/week"}, {"measurement": "Change from Baseline in CSBMs, Difference from Placebo", "setting": "[12]", "result": 0.87, "unit": "CSBMs/week"}, {"measurement": "Change from Baseline in CSBMs, LS Mean (SE)", "setting": "[12]", "result": "1.74 (0.153) CSBMs/week"}, {"measurement": "Change from Baseline in CSBMs, Mean (SD)", "setting": "[12]", "result": "1.74 (2.911) CSBMs/week"}, {"measurement": "Change from Baseline in CSBMs, Mean (SD)", "setting": "Week 1, Active Combined, ITT Population-Excluding Duplicate Patients, MRA", "result": "1.76 (2.832) CSBMs/week"}, {"measurement": "Change from Baseline in CSBMs, Mean (SD)", "setting": "Week 1, Active Combined, ITT Population, MRA", "result": "1.74 (2.815) CSBMs/week"}, {"measurement": "Change from Baseline in CSBMs, Difference from Placebo", "setting": "[13]", "result": 0.86, "unit": "CSBMs/week"}, {"measurement": "Change from Baseline in CSBMs, LS Mean (SE)", "setting": "[13]", "result": "1.82 (0.153) CSBMs/week"}, {"measurement": "Change from Baseline in CSBMs, Mean (SD)", "setting": "[13]", "result": "1.81 (2.963) CSBMs/week"}, {"measurement": "Change from Baseline in CSBMs, Difference from Placebo", "setting": "[14]", "result": 0.85, "unit": "CSBMs/week"}, {"measurement": "Change from Baseline in CSBMs, LS Mean (SE)", "setting": "[14]", "result": "1.84 (0.155) CSBMs/week"}, {"measurement": "Change from Baseline in CSBMs, Mean (SD)", "setting": "[14]", "result": "1.82 (2.986) CSBMs/week"}, {"measurement": "Change from Baseline in CSBMs, Difference from Placebo", "setting": "[15]", "result": 0.85, "unit": "CSBMs/week"}, {"measurement": "Change from Baseline in CSBMs, LS Mean (SE)", "setting": "[15]", "result": "1.81 (0.152) CSBMs/week"}, {"measurement": "Change from Baseline in CSBMs, Mean (SD)", "setting": "[15]", "result": "1.84 (3.158) CSBMs/week"}, {"measurement": "Change from Baseline in CSBMs, Difference from Placebo", "setting": "[16]", "result": 0.85, "unit": "CSBMs/week"}, {"measurement": "Change from Baseline in CSBMs, LS Mean (SE)", "setting": "[16]", "result": "1.84 (0.154) CSBMs/week"}, {"measurement": "Change from Baseline in CSBMs, Mean (SD)", "setting": "[16]", "result": "1.85 (3.171) CSBMs/week"}, {"measurement": "Change from Baseline in CSBMs, Mean (SD)", "setting": "Week 2, Active Combined, ITT Population-Excluding Duplicate Patients, MRA", "result": "1.84 (3.079) CSBMs/week"}, {"measurement": "Change from Baseline in CSBMs, Mean (SD)", "setting": "Week 2, Active Combined, ITT Population, MRA", "result": "1.82 (3.061) CSBMs/week"}, {"measurement": "Change from Baseline in CSBMs, Difference from Placebo", "setting": "[17]", "result": 0.74, "unit": "CSBMs/week"}, {"measurement": "Change from Baseline in CSBMs, LS Mean (SE)", "setting": "[17]", "result": "1.94 (0.153) CSBMs/week"}, {"measurement": "Change from Baseline in CSBMs, Mean (SD)", "setting": "[17]", "result": "1.94 (3.117) CSBMs/week"}, {"measurement": "Change from Baseline in CSBMs, Difference from Placebo", "setting": "[18]", "result": 0.74, "unit": "CSBMs/week"}, {"measurement": "Change from Baseline in CSBMs, LS Mean (SE)", "setting": "[18]", "result": "1.96 (0.156) CSBMs/week"}, {"measurement": "Change from Baseline in CSBMs, Mean (SD)", "setting": "[18]", "result": "1.95 (3.143) CSBMs/week"}, {"measurement": "Change from Baseline in CSBMs, Difference from Placebo", "setting": "[19]", "result": 0.61, "unit": "CSBMs/week"}, {"measurement": "Change from Baseline in CSBMs, LS Mean (SE)", "setting": "[19]", "result": "1.81 (0.152) CSBMs/week"}]}]}
